Key:
[1] = Pharmacokinetics after intravenous and oral administration in rats; type: in vivo; settings: for Clearance (CL) after iv dosing / AUC(0-t) / half-life / Vd: dose 1 mg/kg (Ex. 9: 0.6, Ex. 18: 0.5, Ex. 50: 0.96 mg/kg), iv dosing; for AUC(0-t) / half-life / Vd / bioavailability: rat, plasma; for Vd: read-out: Vss; for bioavailability: oral (generally 5 or 10 mg/kg) versus iv dosing, read-out: F (oral bioavailability)
Summary of the method: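 Rats dosed i.v. (about 0.5, 0.6, 1 or 2 mg/kg) or p.o. (5 or 10 mg/kg) as solution, suspension or capsule. Plasma sampled over 24 h and quantified by LC/MS/MS in MRM mode with ESI.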

JAK2 (h) = molecular target: T1, JAK2 (h) (Homo sapiens, UniProt O60674); test: JAK2 (h) kinase assay; type: biochemical; settings: [γ-33P-ATP] 10 μM or KM values; 40 minutes at room temperature
T1 construct: purchased Millipore UK Ltd (assays performed there as a service)
T1 sequence (O60674 whole entry): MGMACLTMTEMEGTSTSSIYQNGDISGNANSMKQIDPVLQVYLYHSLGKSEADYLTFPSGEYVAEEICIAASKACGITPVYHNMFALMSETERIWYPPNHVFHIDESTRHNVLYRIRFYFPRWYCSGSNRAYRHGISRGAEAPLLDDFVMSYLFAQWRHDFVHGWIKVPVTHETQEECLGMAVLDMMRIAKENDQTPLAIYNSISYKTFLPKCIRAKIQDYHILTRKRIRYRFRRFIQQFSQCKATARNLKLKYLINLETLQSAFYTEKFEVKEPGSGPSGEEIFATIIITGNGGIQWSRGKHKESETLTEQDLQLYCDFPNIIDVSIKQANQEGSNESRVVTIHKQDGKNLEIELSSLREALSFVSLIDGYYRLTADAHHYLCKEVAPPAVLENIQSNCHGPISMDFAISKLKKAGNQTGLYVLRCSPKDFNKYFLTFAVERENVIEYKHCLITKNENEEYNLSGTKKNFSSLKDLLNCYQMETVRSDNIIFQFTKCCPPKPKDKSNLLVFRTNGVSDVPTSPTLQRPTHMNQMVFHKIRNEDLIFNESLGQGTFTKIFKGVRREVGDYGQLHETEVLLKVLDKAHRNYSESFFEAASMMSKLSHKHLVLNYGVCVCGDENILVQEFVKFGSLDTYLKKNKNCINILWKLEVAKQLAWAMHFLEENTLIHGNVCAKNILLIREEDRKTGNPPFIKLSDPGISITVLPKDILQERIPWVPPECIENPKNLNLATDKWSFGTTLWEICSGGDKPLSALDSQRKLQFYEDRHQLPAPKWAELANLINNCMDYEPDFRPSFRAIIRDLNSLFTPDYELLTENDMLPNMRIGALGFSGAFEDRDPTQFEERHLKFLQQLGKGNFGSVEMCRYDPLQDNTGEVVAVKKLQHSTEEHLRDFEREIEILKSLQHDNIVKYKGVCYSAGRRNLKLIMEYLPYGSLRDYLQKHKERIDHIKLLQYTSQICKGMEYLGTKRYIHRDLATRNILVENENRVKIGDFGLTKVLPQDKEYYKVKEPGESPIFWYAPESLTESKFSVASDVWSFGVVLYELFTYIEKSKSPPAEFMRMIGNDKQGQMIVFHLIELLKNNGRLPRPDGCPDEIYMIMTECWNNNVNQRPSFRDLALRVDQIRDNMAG
Summary of the method: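 Radiometric filter-binding assay run at Millipore: human JAK2 with 100 μM peptide substrate in 8 mM MOPS pH 7.0, 0.2 mM EDTA, 10 mM MgAcetate, [γ-^33P]ATP at 10 μM or KM, 40 min at room temperature. Acid-stopped, spotted on P30 filtermat, scintillation counted; IC50 from 10-point ½-log curve.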

Structure (SMILES) | Clearance (CL) after iv dosing [1] [mL/min/kg] | AUC(0-t) [1] [ng·h/mL] | half-life [1] [h] | Vd [1] [L/kg] | IC50 (JAK2 (h)) [nM] | bioavailability [1] [%]
CC(C)(O)Cc1nc2cc(Nc3ncc(Cl)c(NC4CCN(c5ccc(C#N)nn5)CC4)n3)ccn2n1 [Example 77, 6-(4-((5-chloro-2-((2-(2-hydroxy-2-methylpropyl)-[1,2,4]triazolo[1,5-a]pyridin-7-yl)amino)pyrimidin-4-yl)amino)piperidin-1-yl)pyridazine-3-carbonitrile] | 151 | 1860 | 0.843 | 0.623 | 17 | 
CC(C)(O)Cc1cn2cc(Nc3ncc(Cl)c(NC4CCN(c5ccc(C#N)cn5)CC4)n3)ccc2n1 [Example 73, 6-(4-((5-chloro-2-((2-(2-hydroxy-2-methylpropyl)imidazo[1,2-a]pyridin-6-yl)amino)pyrimidin-4-yl)amino)piperidin-1-yl)nicotinonitrile] | 36.5 | 464 | 0.7 | 1.8 | 5 | 56.4
CC(C)(O)c1cnc2cc(Nc3ncc(Cl)c(NC4CCN(c5ccc(C#N)cn5)CC4)n3)ccn12 [Example 68, 6-(4-((5-chloro-2-((3-(2-hydroxypropan-2-yl)imidazo[1,2-a]pyridin-7-yl)amino)pyrimidin-4-yl)amino)piperidin-1-yl)nicotinonitrile] | 15 | 1090 | 1.34 | 1.51 | 3 | 
Cn1nnc2cc(Nc3ncc(Cl)c(NC4CCN(c5ccc(C#N)nn5)CC4)n3)ccc21 [Example 47, 6-(4-((5-chloro-2-((l-methyl-1H-benzo[d][1,2,3]triazol-5-yl)amino)pyrimidin-4-yl)amino)piperidin-1-yl)pyridazine-3-carbonitrile] | 11.7 | 1490 | 0.78 | 0.87 | 7 | 144
CC(C)(O)c1nc2cc(Nc3ncc(Cl)c(NC4CCN(c5ccc(C#N)cn5)CC4)n3)ccn2n1 [Example 39, 6-(4-((5-chloro-2-((2-(2-hydroxypropan-2-yl)-[1,2,4]triazolo[1,5-a]pyridin-7-yl)amino)pyrimidin-4-yl)amino)piperidin-1-yl)nicotinonitrile] | 5.83 | 2830 | 4.65 | 1.25 | 5 | 52
CCC1CN(c2ccc(C#N)cn2)CCC1Nc1nc(Nc2ccn3c(C)cnc3c2)ncc1Cl (stereo not shown) [Example 2, 6-(4-((5-chloro-2-((3-methylimidazo[1,2-a]pyridin-7-yl)amino)pyrimidin-4-yl)amino)-3-ethylpiperidin-1-yl)nicotinonitrile] | 8.5 | 1960 | 1.1 | 0.73 | 3 | 50.2
CC(C)(O)Cc1nc2cc(Nc3ncc(Cl)c(NC4CCN(c5ccc(C#N)cn5)CC4)n3)ccn2n1 [Example 78, 6-(4-((5-chloro-2-((2-(2-hydroxy-2-methylpropyl)-[1,2,4]triazolo[1,5-a]pyridin-7-yl)amino)pyrimidin-4-yl)amino)piperidin-1-yl)nicotinonitrile] | 187 | 1490 | 0.986 | 0.795 | 10 | 84.8
Cc1nc2cc(Nc3ncc(Cl)c(NC4CCN(c5ccc(C#N)cn5)CC4)n3)ccn2n1 [Example 32, 6-(4-((5-chloro-2-((2-methyl-[1,2,4]triazolo[1,5-a]pyridin-7-yl)amino)pyrimidin-4-yl)amino)piperidin-1-yl)nicotinonitrile] | 14.2 | 2020 | 1.53 | 0.96 | 7 | 180
CC(C)(O)Cn1nnc2cc(Nc3ncc(Cl)c(NC4CCN(c5ccc(C#N)cn5)CC4)n3)ccc21 [Example 69, 6-(4-((5-chloro-2-((1-(2-hydroxy-2-methylpropyl)-1H-benzo[d][1,2,3]triazol-5-yl)amino)pyrimidin-4-yl)amino)piperidin-1-yl)nicotinonitrile] | 22.2 | 752 | 0.94 | 1.7 | 2 | 69.8
Cn1cnc2cc(Nc3ncc(Cl)c(NC4CCN(c5ccc(C#N)cn5)CC4)n3)ccc21 [Example 46, 6-(4-((5-chloro-2-((1-methyl-1H-benzo[d]imidazol-5-yl)amino)pyrimidin-4-yl)amino)piperidin-1-yl)nicotinonitrile] | 4.83 | 3400 | 1.01 | 0.42 | 1 | 126
N#Cc1ccc(N2CCC(Nc3nc(Nc4ccn5c(C(F)F)nnc5c4)ncc3Cl)CC2)nc1 [Example 30, 6-(4-((5-chloro-2-((3-(difluoromethyl)-[1,2,4]triazolo[4,3-a]pyridin-7-yl)amino)pyrimidin-4-yl)amino)piperidin-1-yl)nicotinonitrile] | 2.83 | 5130 | 2.61 | 0.61 | 10 | 116
CC(C)(O)Cc1nc2ccc(Nc3ncc(Cl)c(NC4CCN(c5ccc(C#N)cn5)CC4)n3)cn2n1 [Example 67, 6-(4-((5-chloro-2-((2-(2-hydroxy-2-methylpropyl)-[1,2,4]triazolo[1,5-a]pyridin-6-yl)amino)pyrimidin-4-yl)amino)piperidin-1-yl)nicotinonitrile] | 11.2 | 1470 | 1.45 | 1.25 | 39 | 49.7
Cc1nc2cc(Nc3ncc(Cl)c(NC4CCN(c5ccc(C#N)cn5)CC4)n3)ccc2n1C [Example 48, 6-(4-((5-chloro-2-((1,2-dimethyl-1H-benzo[d]imidazol-5-yl)amino)pyrimidin-4-yl)amino)piperidin-1-yl)nicotinonitrile] | 11.2 | 1510 | 1.08 | 0.89 | 0.7 | 79.4

Source: US10683297B2 (Sunshine Lake Pharma Co., Ltd., priority 2017, dated 2020)
